Like-named read-outs stand apart in the source and are kept apart here.
Tests used:
[1] = Forced degradation trial by HPLC-UV; type: physicochemical; settings: oxidized sample, 3% hydrogen peroxide added; T=0, 4 and 18 hours; only condition of acid, base, control, heat, oxidation with degradation
Experimental: For evaluation of stability by HPLC-UV, 200 μg/ml sample solution of anatabine and anatabine glutarate were prepared in duplicate by weighing approximately 10 mg and dissolving in 50 ml volumetric flask and bringing to the volume with deionized water. During the HPLC method optimization the run time and gradient have been adjusted for stability analysis. After the method optimization, a forced degradation trial was run to aid the planned stability assessment analysis by identifying any degradants or impurities present in the anatabine glutarate sample. The forced degradation trial analyzed samples under five conditions—acid, base, control, heat and oxidation—and were tested at T=0, 4 and 18 hours.

[2] = Dynamic vapor sorption (DVS) testing; type: physicochemical; settings: for mass gain between the starting weight and the end weight: DVS double cycle, final mass vs starting mass
Experimental: Anatabine glutarate (20 mg) was dispensed directly into a pre-weighed sample pan and transferred to the instrument (DVS1 Advantage). Double cycle 0-90-O-90-0% RH method with 10% RH steps was applied.
Dynamic vapor sorption (DVS) was performed on SMS DVS dynamic vapor sorption instrument using DVS control software v1.0.6.0. 30 mg of sample was weighed in stainless steel DVS basket before submitting for analysis. The samples were analyzed over the range of 0-90/RH with a maximum time of 6 hours per humidity stage. Each sample was exposed to a double cycle. Analysis was performed as a weight percent change from 0-90% RH with isothermal plots also being examined. XRPD analysis of all samples was performed post-DVS.
This indicates a gain of moisture.
This was further confirmed by an isotherm plot of this sample.
When comparing X-ray diffraction patterns of the sample before and after DVS a match was observed.

[3] = Stability assessment at accelerated conditions (40° C./75% RH, 7 days): visual, TGA, XRPD; type: physicochemical
Experimental: Anatabine glutarate was analyzed at T=0, and an aliquot subsequently stored in a glass vial with a screw cap lid at accelerated conditions (40° C./75% RH) in an incubator for 7 days prior to further analysis. […] The stored sample was also assessed at T=0 and again post T=7 days using TGA, XRPD and HPLC-UV.
Powder X-ray diffraction (XRPD) was performed on Bruker D8 Advance XRPD using 9 mm cavity and flat plate sample holders. Samples were prepared by coating them onto sample holders fitted with a zero background silicon wafer (5 1 0). Analysis was performed using a Cu Kα X-Ray source which operated at 40 kV at 40 mA and a Lynx Eye TM detector, all samples were analyzed over the range 2-40° 20.
Thermogravimetric Analysis (TGA) was performed on Perkin Elmer PYRIS 1 TGA using 40 μL aluminum pans (vented) in ceramic crucibles. The samples were heated from room temperature to 400° C. at 10° C./min (unless otherwise stated) under a stream of nitrogen gas.

[4] = Ambient stability assessment, open Petri dish, 7 days; type: physicochemical; settings: ambient conditions, open in a fume hood, T=0, 3 and 7 days
Experimental: For ambient stability assessment, anatabine glutarate (100 mg) was weighed into a clear glass Petri dish and retained at ambient conditions, open in a fume hood for 7 days. The stored sample was visually assessed at T=0, 3 and 7 days. No change in the color or any evidence of deliquescence were observed (FIG. 12).

[5] = in vivo; cited from earlier work
[6] = tested on: nuclear factor κB (NFKB); settings: cited from earlier work
[7] = tested on: STAT3 and NFkB signaling; settings: periphery and CNS, via regulation of STAT3 and NFkB signaling; cited from earlier work
[8] = Hygroscopicity of comparative anatabine salts (handling observation); type: physicochemical
Experimental: Anatabine free base (160 mg, 1 mmol) was dissolved in anhydrous acetone (2.5 ml). To the formed solution was added a solution of anhydrous citric acid (192 mg, 1 mmol) in anhydrous acetone (3 ml, required sonication) with stirring under nitrogen. The mixture was stirred for 2 hours and then filtered under a blanket of nitrogen. The solid was washed with a small quantity of anhydrous acetone and dried in vacuo. A yield of 340 mg (96.6%) of anatabine citrate was achieved. […] Chemical structure and stoichiometry was confirmed by proton NMR. The solid form of the citrate contains captured acetone.

[9] = stored at 40° C./75% RH for 7 days

C1=CCC(c2cccnc2)NC1 (centres unmarked) [anatabine glutarate, 3-(1,2,3,6-tetrahydropyridin-2-yl)pyridine glutarate]
degradation by peak area (HPLC-UV) [1]: > 1% | mass gain on first sorption cycle ([2]; DVS 0-90% RH, first sorption cycle, majority of gain above 70% RH): 55% | mass gain in second sorption cycle ([2]; DVS 0-90% RH): 50% | mass gain in second sorption cycle ([2]; DVS 0-90% RH, listed as Anatabine glutarate): about 50% | mass gain between the starting weight and the end weight [2]: 5% | mass gain between the starting weight and the end weight ([2]; listed as Anatabine glutarate): about 5% | mass loss on first desorption cycle ([2]; DVS first desorption cycle): about 50% | mass above the starting mass after first desorption ([2]; DVS, end of first desorption): 5% | crystal form before and after DVS (XRPD comparison) ([2]; sample left overnight after DVS, recrystallized into a solid form): identical | visual assessment: color or evidence of deliquescence ([3]; 40° C./75% RH, glass vial with screw cap, T=0, 3 and 7 days): no change observed | TGA mass loss between 20-130° C. ([3]; T=7 days sample, 40° C./75% RH): 0.5% | TGA mass loss between 150° C. and 400° C. ([3]; T=7 days sample, 40° C./75% RH): 80% | evidence of degradation ([3]; accelerated conditions (40° C./75% RH) after 7 days): has not shown evidence of degradation | change in thermal stability [3, 9]: no change in thermal stability | change to the crystalline form (XRPD) [3, 9]: no change to the crystalline form | difference in TGA mass loss between T=0 and T=7 days ([3]; superposition of thermograms, 40° C./75% RH): 2% | visual assessment: color or evidence of deliquescence [4]: No change

C1=CCC(c2cccnc2)NC1 (centres unmarked) [anatabine, 3-[1,2,3,6-Tetrahydropyridin-2-yl]pyridine]
reversal of precipitated nicotine withdrawal [5]: does not reverse | rewarding effect in rodents trained to self-administer nicotine [5]: do not find anatabine to be rewarding | transcription mediated by nuclear factor κB (NFKB) [6]: reduces transcription | anti-inflammatory activity [7]: has an anti-inflammatory activity

anatabine citrate
hygroscopicity [8]: extremely hygroscopic | hygroscopicity ([8]; listed as citrate): highly hygroscopic
